{"source": "ChEMBL document CHEMBL1156728", "about": "“Allele-specific inhibition of divergent protein tyrosine phosphatases with a single small molecule” (Bioorg Med Chem, 2008)", "key": {"[1]": {"experiment": "Inhibition of CCPGCC hexapeptide insertion containing PTPalpha-406 mutant at 1 uM", "settings": "TDE = time-dependent effect"}, "[2]": {"experiment": "Inhibition of CCPGCC hexapeptide insertion containing HePTP-211 mutant"}, "[3]": {"experiment": "Inhibition of CCPGCC hexapeptide insertion containing PTP-PEST-204 mutant"}, "[4]": {"experiment": "Inhibition of CCPGCC hexapeptide insertion containing PTPalpha-406 mutant"}, "[5]": {"experiment": "Inhibition of CCPGCC hexapeptide insertion containing PTP1B-186 mutant"}, "[6]": {"experiment": "Inhibition of CCPGCC hexapeptide insertion containing PTPH1-816 mutant at 1 uM", "settings": "TDE = time-dependent effect"}, "[7]": {"experiment": "Inhibition of CCPGCC hexapeptide insertion containing FAP1-2364 mutant"}, "[8]": {"experiment": "Inhibition of CCPGCC hexapeptide insertion containing TCPTP-187 mutant"}, "[9]": {"experiment": "Inhibition of CCPGCC hexapeptide insertion containing PTPH1-816 mutant"}}, "note": "pKi: −log10 of the molar value."}
{"smiles": "O=C(O)c1ccccc1-c1c2ccc(=O)c([As]3SCCS3)c-2oc2c([As]3SCCS3)c(O)ccc12", "values": [{"measurement": "Activity", "setting": "[1]", "result": "tde"}, {"measurement": "pKi", "setting": "[2]", "result": 7.05}, {"measurement": "pKi", "setting": "[3]", "result": 7.28}, {"measurement": "pKi", "setting": "[4]", "result": 7.41}, {"measurement": "pKi", "setting": "[5]", "result": 7.34}, {"measurement": "Activity", "setting": "[6]", "result": "tde"}, {"measurement": "pKi", "setting": "[7]", "result": 6.43}, {"measurement": "pKi", "setting": "[8]", "result": 7.77}, {"measurement": "pKi", "setting": "[9]", "result": 7.42}]}
